We go through 14 molecules from patent US8394967B2, “Antioxidant inflammation modulators: C-17 homologated oleanolic acid derivatives” (Reata Pharmaceuticals, Inc., priority 2008, dated 2013).

For assay [1], the system named is NO production in RAW264.7 macrophages. Put plainly: Inhibition of NO production in IFNγ-treated RAW264.7 macrophages (Griess reagent). The assay is classed as cell-based, mouse. To be noted: then 20 ng/ml IFNγ for 24 hours. On the procedure: (§1) FIGS. 1-4, 6 and 8. Inhibition of NO Production. RAW264.7 macrophages were pre-treated with DMSO or drugs at various concentrations (nM) for 2 hours, then treated with 20 ng/ml IFNγ for 24 hours. NO concentration in media was determined using a Griess reagent system; cell viability was determined using WST-1 reagent.
(§2) Nitric Oxide production and cell viability. RAW264.7 macrophages were pre-treated with DMSO or drugs for 2 hours, then treated with recombinant mouse IFNγ (Sigma) for 24 hours. NO concentration in media was determined using the Griess reagent system (Promega). Cell viability was determined using WST-1 reagent (Roche).

The subject of a further assay is RAW264.7 macrophages. Put plainly: Cell viability of RAW264.7 macrophages (WST-1 reagent). Format: cell-based, mouse. To be noted: read-out: RAW264.7 (20 ng/ml IFNγ) WST-1 IC50. Here is the method: as §1, §2
Where [2] appears, read: Mus musculus, RAW264.7, RAW264.7 macrophages pre-treated 2 hours.
[3] abbreviates: Mus musculus, RAW264.7, 24 h, cell viability, RAW264.7, 20 ng/ml IFNγ 24 hours, WST-1 reagent.
The mark [4] stands for this setting: RAW264.7 macrophages pre-treated 2 hours.
Where [5] appears, read: cell viability, RAW264.7, 20 ng/ml IFNγ 24 hours, WST-1 reagent.

Counter-ions that a name gives are not always drawn. Like-named read-outs stand apart in the source and are kept apart here.

For the molecule `CC1(C)CC[C@]2(COC(=O)C(C)(C)C)CC[C@]3(C)[C@H](C(=O)C[C@@H]4[C@@]5(C)C=C(C#N)C(=O)C(C)(C)[C@@H]5CC[C@]43C)[C@@H]2C1` [Compound 63297, ((4aS,6aR,6bR,8aR,12aR,12bR,14aR,14bS)-11-cyano-2,2,6a,6b,9,9,12a-heptamethyl-10,14-dioxo-1,2,3,4,4a,5,6,6a,6b,7,8,8a,9,10,12a,12b,13,14,14a,14b-icosahydropicen-4a-yl)methyl pivalate], the IC50 was about 50 nM in assay [1] (setting [2]) and about 200 nM with RAW264.7 macrophages (setting [3]).
In the same order, the values of `CC1(C)CC[C@]2(COP(=O)(O)O)CC[C@]3(C)[C@H](C(=O)C[C@@H]4[C@@]5(C)C=C(C#N)C(=O)C(C)(C)[C@@H]5CC[C@]43C)[C@@H]2C1` [Compound 63269, ((4aS,6aR,6bR,8aR,12aR,12bR,14aR,14bS)-11-cyano-2,2,6a,6b,9,9,12a-heptamethyl-10,14-dioxo-1,2,3,4,4a,5,6,6a,6b,7,8,8a,9,10,12a,12b,13,14,14a,14b-icosahydropicen-4a-yl)methyl dihydrogen phosphate] are over 200 nM and over 200 nM.
Take `CC1(C)CC[C@]2([C@@H]3CO3)CC[C@]3(C)[C@H](C(=O)C[C@@H]4[C@@]5(C)C=C(C#N)C(=O)C(C)(C)[C@@H]5CC[C@]43C)[C@@H]2C1` [Compound 63275, (4aR,6aR,6bR,8aS,12aS,12bR,14aR,14bR)-4,4,6a,6b,11,11,14b-heptamethyl-8a-((R)-oxiran-2-yl)-3,13-dioxo-3,4,4a,5,6,6a,6b,7,8,8a,9,10,11,12,12a,12b,13,14,14a,14b-icosahydropicene-2-carbonitrile]: the IC50 in assay [1] (setting [2]) is about 15 nM; with RAW264.7 macrophages (setting [3]) it was over 200 nM.
In the case of `C=C[C@]12CCC(C)(C)C[C@H]1[C@H]1C(=O)CC3[C@@]4(C)C=C(C#N)C(=O)C(C)(C)C4CC[C@@]3(C)[C@]1(C)CC2` (stereo partly drawn) [Compound 63213, (6aR,6bR,8aR,12aS,12bR,14bR)-4,4,6a,6b,11,11,14b-heptamethyl-3,13-dioxo-8a-vinyl-3,4,4a,5,6,6a,6b,7,8,8a,9,10,11,12,12a,12b,13,14,14a,14b-icosahydropicene-2-carbonitrile], the IC50 in assay [1] (setting [2]) is about 40 nM; in the assay with RAW264.7 macrophages (setting [3]), about 200 nM.
In the same order, the values of `CC1(C)CC[C@]2(CN)CC[C@]3(C)[C@H](C(=O)CC4[C@@]5(C)C=C(C#N)C(=O)C(C)(C)C5CC[C@]43C)[C@@H]2C1` (stereo partly drawn) [63214 salt, (6aR,6bR,8aS,12aS,12bR,14bR)-8a-(aminomethyl)-4,4,6a,6b,11,11,14b-heptamethyl-3,13-dioxo-3,4,4a,5,6,6a,6b,7,8,8a,9,10,11,12,12a,12b,13,14,14a,14b-icosahydropicene-2-carbonitrile, trifluoroacetic acid salt] are about 30 nM and over 200 nM.
As for `CC1(C)CC[C@]2(CC(=O)O)CC[C@]3(C)[C@H](C(=O)C[C@@H]4[C@@]5(C)C=C(C#N)C(=O)C(C)(C)[C@@H]5CC[C@]43C)[C@@H]2C1` [Compound 63332, 2-((4aR,6aR,6bR,8aR,12aR,12bR,14aR,14bS)-11-cyano-2,2,6a,6b,9,9,12a-heptamethyl-10,14-dioxo-1,2,3,4,4a,5,6,6a,6b,7,8,8a,9,10,12a,12b,13,14,14a,14b-icosahydropicen-4a-yl)acetic acid], the IC50 in assay [1] (setting [2]) was about 50 nM.
On to `CC1(C)CC[C@]2(C[S+]([O-])c3ccccc3)CC[C@]3(C)[C@H](C(=O)C[C@@H]4[C@@]5(C)C=C(C#N)C(=O)C(C)(C)[C@@H]5CC[C@]43C)[C@@H]2C1` (stereo partly drawn) [Compound 63288, (4aR,6aR,6bR,8aS,12aS,12bR,14aR,14bR)-4,4,6a,6b,11,11,14b-heptamethyl-3,13-dioxo-8a-(phenylsulfinylmethyl)-3,4,4a,5,6,6a,6b,7,8,8a,9,10,11,12,12a,12b,13,14,14a,14b-icosahydropicene-2-carbonitrile], for which the IC50 in assay [1] (setting [4]) is about 25 nM; in the assay with RAW264.7 macrophages (setting [5]) it was about 200 nM.
Regarding `CC1(C)CC[C@]2(C(O)CBr)CC[C@]3(C)[C@H](C(=O)C[C@@H]4[C@@]5(C)C=C(C#N)C(=O)C(C)(C)[C@@H]5CC[C@]43C)[C@@H]2C1` (single isomer, unassigned) [Compound 63283], the IC50 in assay [1] (setting [4]) is about 20 nM; in the assay on RAW264.7 macrophages (setting [5]), about 200 nM.
`CC1(C)CC[C@]2(CN3C(=O)c4ccccc4C3=O)CC[C@]3(C)[C@H](C(=O)C[C@@H]4[C@@]5(C)C=C(C#N)C(=O)C(C)(C)[C@@H]5CC[C@]43C)[C@@H]2C1` [Compound 63276, (4aR,6aR,6bR,8aS,12aS,12bR,14aR,14bR)-8a-((1,3-dioxoisoindolin-2-yl)methyl)-4,4,6a,6b,11,11,14b-heptamethyl-3,13-dioxo-3,4,4a,5,6,6a,6b,7,8,8a,9,10,11,12,12a,12b,13,14,14a,14b-icosahydropicene-2-carbonitrile]: the values for the IC50 (in assay [1] (setting [2]); in the assay on RAW264.7 macrophages (setting [3])) were about 50 nM and about 150 nM, respectively.
For the molecule `CC1(C)CC[C@]2(COC(=O)C(F)(F)F)CC[C@]3(C)[C@H](C(=O)C[C@@H]4[C@@]5(C)C=C(C#N)C(=O)C(C)(C)[C@@H]5CC[C@]43C)[C@@H]2C1` [Compound 63294, ((4aS,6aR,6bR,8aR,12aR,12bR,14aR,14bS)-11-cyano-2,2,6a,6b,9,9,12a-heptamethyl-10,14-dioxo-1,2,3,4,4a,5,6,6a,6b,7,8,8a,9,10,12a,12b,13,14,14a,14b-icosahydropicen-4a-yl)methyl 2,2,2-trifluoroacetate], the IC50 was about 9 nM in assay [1] (setting [2]) and over 200 nM with RAW264.7 macrophages (setting [3]).
Consider `CC1(C)CC[C@]2(C(O)CBr)CC[C@]3(C)[C@H](C(=O)C[C@@H]4[C@@]5(C)C=C(C#N)C(=O)C(C)(C)[C@@H]5CC[C@]43C)[C@@H]2C1` (single isomer, unassigned) [Compound 63284], for which the IC50 in assay [1] (setting [4]) is about 15 nM; in the assay on RAW264.7 macrophages (setting [5]), about 200 nM.
Consider `CCOP(=O)(OCC)OC[C@]12CCC(C)(C)C[C@H]1[C@H]1C(=O)C[C@@H]3[C@@]4(C)C=C(C#N)C(=O)C(C)(C)[C@@H]4CC[C@@]3(C)[C@]1(C)CC2` [Compound 63239, ((4aS,6aR,6bR,8aR,12aR,12bR,14aR,14bS)-11-cyano-2,2,6a,6b,9,9,12a-heptamethyl-10,14-dioxo-1,2,3,4,4a,5,6,6a,6b,7,8,8a,9,10,12a,12b,13,14,14a,14b-icosahydropicen-4a-yl)methyl diethyl phosphate], for which the IC50 in the assay on RAW264.7 macrophages (Mus musculus, RAW264.7, 24 h) is over 200 nM.
`CC1(C)CC[C@]2([C@@H](O)CCl)CC[C@]3(C)[C@H](C(=O)C[C@@H]4[C@@]5(C)C=C(C#N)C(=O)C(C)(C)[C@@H]5CC[C@]43C)[C@@H]2C1` (single isomer, unassigned) [Compound 63282]: the IC50 in assay [1] (setting [2]) was about 25 nM; in the assay on RAW264.7 macrophages (setting [3]), over 200 nM.
As to `Cn1nnc(CNC[C@]23CCC(C)(C)C[C@H]2[C@H]2C(=O)C[C@@H]4[C@@]5(C)C=C(C#N)C(=O)C(C)(C)[C@@H]5CC[C@@]4(C)[C@]2(C)CC3)n1` [Compound 63233, (4aR,6aR,6bR,8aS,12aS,12bR,14aR,14bR)-4,4,6a,6b,11,11,14b-heptamethyl-8a-(((2-methyl-2H-tetrazol-5-yl)methylamino)methyl)-3,13-dioxo-3,4,4a,5,6,6a,6b,7,8,8a,9,10,11,12,12a,12b,13,14,14a,14b-icosahydropicene-2-carbonitrile], the IC50 with RAW264.7 macrophages (Mus musculus, RAW264.7, 24 h) was over 200 nM.
